Where two headings read alike, the source gives them in different places.
Legend:
[1] = tested on: Leiomyosarcoma/pelvic patient tumor cells; experiment: Alamar Blue anti-tumor screen, IC50 on patient tumor cells, tumor #4; assay type: cell-based, human
From the text: (§1) Excess tissue specimens obtained from patients undergoing therapeutic surgical resections were freshly obtained at the time of surgery and a small portion of the specimen was sent for pathological testing. For diagnosis and grading of tissue samples (ie: prior to processing), hematoxylin and eosin stained tissue sections were examined by a pathologist. If the diagnosis and grading of the tissue concurred with the determination made by the surgical pathologist that provided the tissue, then the tissue was used in the screen. If there was no agreement, then two additional pathologists served as referees. If no consensus was reached, then the tissue was not used.
(§2) The remaining tissue was used to prepare cell suspensions. The tissue was initially treated enzymatically via standard methods until only undigested material remained. The digested cell suspension was filtered through one or more screens of between 40 micron and 100 micron porosity. The resulting cell suspension was further purified via isokinetic density centrifugation.
(§3) Additional normal cells were removed from the cell suspension by negative immunoselection with a combination of monoclonal antibodies linked to magnetic beads (Dynal) that were used according to the manufacturers' instructions. The remaining cells were placed into appropriate medium, frozen down in 1.0 mL aliquots, and stored until use.
After tissue processing, the relative purity of the resulting cell suspension was determined by cytological examination after fixation and Papanicolaou staining. Only those cell preparations greater than 80% tumor cells were used for testing of candidate compounds. If there was any doubt about the percentage of tumor cells in the cell preparation, additional pathologists served as referees to make a determination.
(§4) Cell preparations that passed histological and cytological examination for diagnosis, grading, and cell purity were thawed at 37° C. and resuspended in tissue culture medium designed to maintain the cells during the incubation period. The live and dead cells were counted and the cells were diluted in culture medium to 1.0×10^3 live cells/test well for tumor cells and 3.3×10^3 live cells/test well for normal cells.
The cells were added to microtiter plates and incubated at 37° C. overnight with 10 μM of the candidate compounds that were added at 1/10th the volume of the cell suspension. Alamar Blue (Accumed International, Westlake Ohio) was then added to the cells at 1/10 the volume of the well, and the cells were further incubated at 37° C. for various times. Alamar Blue dye measures cellular re-dox reactions (ie: cellular respiration) whereby a spectral shift occurs upon reduction of the dye. (Excitation 530 nm; emission 590 nm).
The kinetics of cellular re-dox reactions were subsequently measured at various times, for example at 3 hours, 3 days, and 5 days post-dye addition. These measurements, in comparison with control cells (untreated with compound) and media controls (test wells without cells) provide the percent inhibition of cellular mitochondrial respiration as a result of candidate compound treatment, as well as IC50 determinations.
In a blinded fashion, approximately 10,000 compounds were tested at a rate of 1,000-4,000 compounds per run set against various tumor types. The anti-tumor screen utilized was composed of three tiers as follows. In screen 1, patient tumor cells were tested in singles, with candidate compounds at a concentration of 10 μM. […]

[2] = tested on: Gastrointestinal stromal tumor (sarcoma) patient tumor cells; experiment: Alamar Blue anti-tumor screen, IC50 on patient tumor cells, tumor #6; assay type: cell-based; conditions: Homo sapiens, triplicate
From the text: as §1, with “used. […]” for “used.”
(§5) After tissue processing, the relative purity of the resulting cell suspension was determined by cytological examination after fixation and Papanicolaou staining. […]
as §4, with “cells. […]” for “cells.”
(§6) The kinetics of cellular re-dox reactions were subsequently measured at various times, for example at 3 hours, 3 days, and 5 days post-dye addition. […]

[3] = tested on: Myxofibrosarcoma/thigh patient tumor cells; experiment: Alamar Blue anti-tumor screen, IC50 on patient tumor cells, tumor #3; assay type: cell-based; conditions: Homo sapiens, triplicate
From the text: as §1, with “used. […]” for “used.”
as §5
as §4, with “cells. […]” for “cells.”
as §6

[4] = tested on: Gastrointestinal stromal tumor (sarcoma) patient tumor cells; experiment: Alamar Blue anti-tumor screen, IC50 on patient tumor cells, tumor #5; assay type: cell-based; conditions: Homo sapiens, triplicate
From the text: as §1, with “used. […]” for “used.”
as §5
as §4, with “cells. […]” for “cells.”
as §6

patient tumor cells = experiment: Anti-tumor screen 1 and 2 at 10 μM on patient tumor cells; assay type: cell-based, human; conditions: for inhibition at 10 µM: Homo sapiens
From the text: as §1, §2, §3, §5
as §4, with “cells. […]” for “cells.”
as §6

patient normal cells = experiment: Anti-tumor screen 2 at 10 μM on patient normal cells; assay type: cell-based; conditions: Homo sapiens, screen 2, 10 μM, in duplicate
From the text: as §1, with “used. […]” for “used.”
as §5
as §4, with “cells. […]” for “cells.”
as §6

[5] = tested on: Fibrohistiocytic Sarcoma/lung patient tumor cells; experiment: Alamar Blue anti-tumor screen, IC50 on patient tumor cells, tumor #2; assay type: cell-based; conditions: Homo sapiens, triplicate
From the text: as §1, with “used. […]” for “used.”
as §5
as §4, with “cells. […]” for “cells.”
as §6

[6] = tested on: Ovarian patient tumor cells; experiment: Alamar Blue anti-tumor screen, IC50 on patient tumor cells, tumor #7; assay type: cell-based; conditions: Homo sapiens, triplicate
From the text: as §1, with “used. […]” for “used.”
as §5
as §4, with “cells. […]” for “cells.”
as §6

[7] = tested on: Leiomyosarcoma/abdominal patient tumor cells; experiment: Alamar Blue anti-tumor screen, IC50 on patient tumor cells, tumor #1; assay type: cell-based, human; conditions: triplicate
From the text: as §1, with “used. […]” for “used.”
as §5
as §4, with “cells. […]” for “cells.”
as §6

In the case of `O=C(Nc1ccc(Cl)cc1)c1cc(Br)ccc1NS(=O)(=O)c1ccc(Cl)c([N+](=O)[O-])c1` [Compound 3, (5-bromo-2-{[(4-chloro-3-nitrophenyl)sulfonyl]amino}phenyl)-N-(4-chlorophenyl)carboxamide], the IC50 ([1]; Homo sapiens) is reported as 118 nM.

Work on `O=C(Nc1ccc(Cl)cc1)c1cc2ccccc2cc1NS(=O)(=O)c1ccc(Cl)cc1` [Compound 5, N-(4-chlorophenyl)(3-{[(4-chlorophenyl)sulfonyl]amino}(2-naphthyl))-carboxamide] yielded an IC50 ([1]; Homo sapiens, Tumor #4 of Table 2, Leiomyosarcoma/pelvic, tested as in Example 3 (Table 3), read-out: IC50) of 209 nM.

For `O=C(Nc1ccc(Cl)cc1)c1cc(Br)ccc1NS(=O)(=O)c1ccc(Cl)cc1` [Compound 2, 5-bromo-2-{[(4-chlorophenyl)sulfonyl]amino}-N-(4-chlorophenyl)-benzamide], the IC50 ([1]; Homo sapiens) was 44.7 nM.

`O=C(Nc1ccc(Cl)cc1)c1cc(Cl)ccc1NS(=O)(=O)c1ccc(Cl)cc1` [Compound 1, 5-chloro-2-{[(4-chlorophenyl)sulfonyl]amino}-N-(4-chlorophenyl)benzamide] showed an IC50 [2] of 531 nM, an IC50 [3] of 49 nM and an IC50 [4] of 2400 nM. For the same compound, the inhibition at 10 µM (patient tumor cells; screen 1, 10 μM, patient tumor cells, criterion: at least 80% inhibition and/or two standard deviations from the mean of the plate samples, read-out: inhibition (compared to cell and media controls)) was at least 80%, the inhibition at 10 µM (patient tumor cells; screen 2, 10 μM, in duplicate, patient tumors, read-out: inhibition on tumor cells) was at least 80% and the “selectivity against tumor cells” value (patient tumor cells; three-tier anti-tumor screen, tumor versus normal patient cells, 10 μM) was “selectivity against tumor cells”. It also gave an inhibition at 10 µM (patient normal cells) of at most 20%, an IC50 [5] of 30 nM and an IC50 [6] of 35 nM. The IC50 ([7]; Homo sapiens) was 170 nM, the IC50 [7] was 150 nM and the IC50 ([1]; Homo sapiens, Tumor #4, Leiomyosarcoma/pelvic, patient tumor cells, triplicate (Table 2), read-out: IC50) was 339 nM. It also gave an IC50 ([1]; Tumor #4, Leiomyosarcoma/pelvic, patient tumor cells, triplicate (Table 2), read-out: IC50) of 410 nM.

Source: patent publication US6716879B2, “Methods for anti-tumor therapy” (Compass Pharmaceuticals, LLC, priority 2000, dated 2004)
